# According to US20240390377A1, “COMPOSITION FOR THE PREVENTION OR TREATMENT OF NEURODEGENERATIVE OR MOTOR NEURON DISEASES COMPRISING HALOFUGINONE AS AN ACTIVE INGREDIENT” (CURAMYS CO., LTD., priority 2022, published 2024):
# Tests used:
# C2C12 cells [1] = assay: Real-time qRT-PCR analysis of C2C12 myoblasts (TGF-β1 stimulation, halofuginone treatment); format: cell-based, mouse; settings: low (5 ng/ml) or high (10 ng/ml) concentration halofuginone, 24 h (FIG. 4a)
# Protocol: (§1) Specifically, C2C12 cells (CRL-1772) were purchased from the American Type Culture Collection (ATCC) and maintained in DMEM medium (Welgene) containing 10% (v/v) fetal bovine serum (FBS; Gibco) and 1% penicillin-streptomycin (P/S; Gibco) at 37° C. under 5% CO2 conditions. The C2C12 cells were seeded in 6-well plates at a density of 3×10^5 cells per well and allowed to adhere for 24 hours. Subsequently, the medium was replaced with serum-free medium after 24 hours, followed by stimulation with 5 ng/ml rhTGF-β1 (recombinant human TGF-β1; R&D Systems). After stimulation, the cells were treated with various concentrations (0 [control], or 1, 2.5, 5 [low dose], 10 [high dose], 20, 50, 100 ng/ml) of halofuginone (Sigma) in serum-free medium for 24 hours.
# Specifically, total RNA was isolated from C2C12 cells in Example 1, fibroblasts in Example 5, and the lumbar spinal cord of mice in Example 6 using the FavorPrep™ Tri-RNA Reagent (Favorgen). The lumbar spinal cord was isolated from the mouse in Example 6 and stored frozen at −80° C. until the experiment. The concentration of total RNA was measured at 260 nm absorbance using a spectrophotometer (NanoDrop Spectrophotometer ND-2000, Thermo Scientific). cDNA was synthesized from 1 μg of total RNA using the ReverTra Ace-α™ (Toyobo) according to the manufacturers protocol. Quantitative RT-PCR was performed using the SYBR Green ExcelTaq™ 2× Fast Q-PCR Master Mix (TQ1200, Smobio) on a thermocycler (CFX Connect Real-Time PCR Detection System, BIO-RAD) with the primers listed in Table 3 below. Fluorescence data were analyzed with Bio-Rad CFX Manager 3.1 software, and control versus relative mRNA expression was calculated by the 2AT) method. Experiments were performed four times on all samples. All primers were designed using Primer3 online software, and GAPDH was used as a control group.
# (§2) Specifically, after treating C2C12 cells with TGF-β1 for 24 hours as in Example 1, real-time qRT-PCR was performed in the same manner as in Example 11 to confirm TGF-β1, 2 and 3, α-SMA and MyoD mRNA expression (FIG. 2a), and Western blot analysis was performed in the same manner as in Example 12 to confirm autocrine expression of TGF-β1 and MyoD protein and α-SMA (FIG. 2b).
# Specifically, as in Example 1, C2C12 cells were stimulated with TGF-β1 for 24 hours, and then halofuginone was treated for 24 hours, and real-time qRT-PCR was performed in the same manner as in Example 11 to confirm TGF-β1, α-SMA, MyoD, and collagen I (Col-I) mRNA expression (FIG. 4a). In addition, Western blot analysis was performed in the same manner as in Example 12 to confirm TGF-β1, α-SMA, MyoD, and collagen I protein expression (FIG. 4b). In addition, immunocytochemical analysis was performed in the same manner as in Example 3 to confirm α-SMA and MyoD expression (FIG. 4c).
# C2C12 cells [2] = assay: Western blot analysis of C2C12 myoblasts (TGF-β1 stimulation, halofuginone treatment); format: cell-based, mouse
# Protocol: as §1
# Specifically, the lumbar spinal cord or knee joint of the mouse of Example 6 was separated and immediately frozen at −80° C. Each lumbar spinal cord or knee joint was then homogenized and chemically treated to obtain cells. The chemically treated cells, the C2C12 cells of Example 1 or the fibroblasts of Example 5 were dissolved in a RIPA buffer (Thermo, MA, USA) with a protease inhibitor and a phosphatase inhibitor (Roche, IN, USA) and incubated on ice for 30 minutes. After centrifugation of the lysate at 13,000 rpm at 4° C. for 20 min, insoluble substances were removed. Protein concentrations were measured by BCA analysis (Pierce Biotechnology). Equal volumes of cell lysate were loaded onto SDS-PAGE gels for electrophoresis, and transferred onto nitrocellulose membranes (Amersham Protran 0.2 um NC, Amersham Pharmacia Biotech, Piscataway, NJ, USA). The membranes were then blocked with 5% (w/v) skimmilk in 1×TBST for 1 h at room temperature. After blocking, anti-RB-actin antibody (1:5000; Santa Cruz, cat #sc47778), anti-Smad2 antibody (1:1000; Cell Signaling, cat #5339), anti-p-Smad2 antibody (1:1000; Cell Signaling, cat #3108), anti-TGF-β1 antibody (1:1000; Santa Cruz, cat #sc130348), anti-α-SMA antibody (1:10000; abcam cat #ab7817), anti-MyoD antibody (1:1000; cat #sc377460), anti-collagen|antibody (1:1000; abcam cat #ab21286), anti-cleaved caspase-3 antibody (1:1000; Cell Signaling, cat #9661), anti-bax antibody (1:500; Santa Cruz, cat #sc493), anti-bcl2 antibody (1:1000; Novus Biologics, cat #NB100-56098), anti-ChAT antibody (1:1000; Millipore, cat #AB144) were treated and incubated overnight at 4° C. Subsequently, membranes were washed several times with 1×TBST and incubated with horseradish peroxidase-conjugated secondary antibodies (anti-mouse, rabbit or goat, 1:5000; GE Healthcare) in blocking buffer for 1 h at room temperature (RT). The membranes were then washed, briefly incubated with the SuperSignal West Pico Plus Chemical Substructure (Pierce Biotechnology) according to the manufacturer's procedure, and quantified with an image analyzer (Amersham Pharmacia Biotech, Piscataway, NJ, USA). β-actin was used as an internal control group. The concentration measurement of protein intensity was quantified using Image J (National Institutes of Health).
# as §2
# Specifically, C2C12 cells were treated with halofuginone after TGF-β1 stimulation or no stimulation in the same manner as described in Example 2, and cell viability analysis was performed through CCK-8 analysis (FIGS. 3a and 3b), and Western blot analysis was performed in the same manner as described in Example 12 to confirm autocrine expression of p-Smad2, Smad2, TGF-β1, MyoD, collagen I protein and α-SMA (FIG. 3c). […]
# [3] = halofuginone 5 ng/ml and 10 ng/ml, 24 h after TGF-β1 stimulation (FIG. 3c)
smiles,measurement,setting,value
O=C(C[C@H]1NCCC[C@@H]1O)Cn1cnc2cc(Br)c(Cl)cc2c1=O (racemic) [halofuginone],decrease in MyoD mRNA level by TGF-β1 stimulation,C2C12 cells [1],significantly recovered
same,increase in TGF-β1 mRNA level by TGF-β1 stimulation,C2C12 cells [1],significantly reduced
same,increase in collagen I mRNA level by TGF-β1 stimulation,C2C12 cells [1],significantly reduced
same,increase in α-SMA mRNA level by TGF-β1 stimulation,C2C12 cells [1],significantly reduced
same,decrease in MyoD protein level by TGF-β1 stimulation,C2C12 cells [2]; [3],significantly recovered
same,increase in TGF-β1 protein level by TGF-β1 stimulation,C2C12 cells [2]; [3],significantly reduced
same,increase in collagen I protein level by TGF-β1 stimulation,C2C12 cells [2]; [3],significantly reduced
same,increase in p-Smad2/Smad2 ratio by TGF-β1 stimulation,C2C12 cells [2]; [3],significantly reduced
same,increase in α-SMA protein level by TGF-β1 stimulation,C2C12 cells [2]; [3],significantly reduced
same,"TGF-β1, α-SMA, MyoD and collagen I protein expression, compared with the mRNA result","C2C12 cells [2]; low or high concentration halofuginone, 24 h after TGF-β1 stimulation (FIG. 4b)",the same
